Results from ChEMBL document CHEMBL1201862, “PubChem BioAssay data set” (2004).
The source made the active and inactive calls.

Tests used:
[1] = molecular target: T1, Rac GTPase-activating protein 1 (Homo sapiens, UniProt Q9H0H5); test: MgcRacGAP GTPase-activating activity inhibitors, confirmation, biochemical, ADP Hunter fluorescence, primary and confirmatory (AID 624330); format: functional
T1 sequence (Q9H0H5 whole entry): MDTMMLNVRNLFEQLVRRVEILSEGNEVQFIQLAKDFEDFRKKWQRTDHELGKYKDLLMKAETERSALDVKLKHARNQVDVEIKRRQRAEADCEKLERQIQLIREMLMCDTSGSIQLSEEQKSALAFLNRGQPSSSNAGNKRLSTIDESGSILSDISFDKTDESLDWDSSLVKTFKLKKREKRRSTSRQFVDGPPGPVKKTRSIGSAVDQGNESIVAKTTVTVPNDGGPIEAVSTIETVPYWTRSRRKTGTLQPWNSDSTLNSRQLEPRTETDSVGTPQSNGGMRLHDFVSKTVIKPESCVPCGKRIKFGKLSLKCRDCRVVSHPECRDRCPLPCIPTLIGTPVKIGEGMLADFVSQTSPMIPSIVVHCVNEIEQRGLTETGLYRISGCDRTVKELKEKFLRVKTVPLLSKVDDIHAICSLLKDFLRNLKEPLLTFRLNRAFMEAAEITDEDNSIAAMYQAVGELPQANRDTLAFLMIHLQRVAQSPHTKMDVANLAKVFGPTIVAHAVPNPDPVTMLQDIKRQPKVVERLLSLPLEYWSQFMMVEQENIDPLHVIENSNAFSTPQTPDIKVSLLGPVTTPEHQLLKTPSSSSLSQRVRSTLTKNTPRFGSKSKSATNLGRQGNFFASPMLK

Cytochrome P450 2C9 = Cytochrome P450 2C9 (Homo sapiens, UniProt P11712)
Chain of Cytochrome P450 2C9 (P11712 whole entry): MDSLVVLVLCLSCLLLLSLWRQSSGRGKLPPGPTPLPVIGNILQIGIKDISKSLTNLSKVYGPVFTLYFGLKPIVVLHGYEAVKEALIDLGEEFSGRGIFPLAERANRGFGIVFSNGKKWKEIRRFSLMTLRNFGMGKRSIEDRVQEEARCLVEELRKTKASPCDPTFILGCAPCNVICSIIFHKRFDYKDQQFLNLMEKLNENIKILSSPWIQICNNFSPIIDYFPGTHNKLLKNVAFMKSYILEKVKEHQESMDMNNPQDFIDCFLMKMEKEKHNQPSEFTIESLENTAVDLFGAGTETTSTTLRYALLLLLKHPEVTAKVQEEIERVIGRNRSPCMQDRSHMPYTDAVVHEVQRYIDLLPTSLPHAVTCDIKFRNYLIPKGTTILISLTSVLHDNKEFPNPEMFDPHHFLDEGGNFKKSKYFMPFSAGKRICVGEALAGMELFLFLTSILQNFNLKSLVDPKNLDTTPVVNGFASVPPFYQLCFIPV

[2] = molecular target: FAD-linked sulfhydryl oxidase ALR (Homo sapiens, UniProt P55789); test: inhibitors of human ALR sulfhydryl oxidase, dose response, biochemical, H2O2 detection, luminescence, cherry-pick (AID 493248)
Chain of FAD-linked sulfhydryl oxidase ALR (P55789 whole entry): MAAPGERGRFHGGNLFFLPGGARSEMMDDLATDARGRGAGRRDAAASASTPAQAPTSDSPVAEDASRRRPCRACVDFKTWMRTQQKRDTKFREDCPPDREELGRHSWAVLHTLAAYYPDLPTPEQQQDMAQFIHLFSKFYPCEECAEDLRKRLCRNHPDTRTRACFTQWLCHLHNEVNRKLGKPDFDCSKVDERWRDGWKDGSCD

[3] = test system: Streptococcus sp. 'group A'; test: growth inhibition of control SK(-) GAS strain, dose response, counter-screen for streptokinase expression inhibitor project, luminescence, kanamycin, BacTiterGlo, confirmation (AID 1900); format: functional, organism-based
Streptokinase A = molecular target: T2, Streptokinase A (Streptococcus pyogenes serotype M1, UniProt P10520); test: S. pyogenes streptokinase expression inhibitors, potency, dose response, plasminogen activation absorbance, OD405 (AID 1914); format: functional, Streptococcus pyogenes M1 GAS;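 further: secreted streptokinase activity via plasminogen activation per viability signal from cell pellet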
T2 sequence (P10520 whole entry): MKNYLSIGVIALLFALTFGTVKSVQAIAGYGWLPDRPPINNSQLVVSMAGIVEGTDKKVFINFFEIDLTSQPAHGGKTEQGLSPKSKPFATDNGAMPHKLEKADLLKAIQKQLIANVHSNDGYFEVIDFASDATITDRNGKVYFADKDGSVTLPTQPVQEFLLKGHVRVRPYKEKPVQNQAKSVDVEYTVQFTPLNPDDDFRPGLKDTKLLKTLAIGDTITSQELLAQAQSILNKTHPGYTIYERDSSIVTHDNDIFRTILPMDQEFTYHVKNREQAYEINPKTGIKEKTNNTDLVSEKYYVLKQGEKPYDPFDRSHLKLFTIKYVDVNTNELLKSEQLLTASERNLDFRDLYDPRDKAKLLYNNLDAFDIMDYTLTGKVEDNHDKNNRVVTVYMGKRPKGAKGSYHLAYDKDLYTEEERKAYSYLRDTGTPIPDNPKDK

Streptococcus = test: Group A Streptococcus viability loss, dose response, counter-screen for streptokinase expression inhibitor project, luminescence, BacTiterGlo (AID 1915); format: functional, organism-based;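 further: potency for reduction of bacterial viability or growth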
[4] = molecular target: T3, Corticotropin-releasing factor receptor 2/Corticotropin-releasing factor-binding protein (Homo sapiens, UniProt P24387+Q13324); test: Dose Response confirmation of uHTS hits for small molecule antagonists of the CRF-binding protein and CRF-R2 receptor complex.; format: functional; conditions: read-out: IC50_Mean
T3 sequence (Q13324 whole entry): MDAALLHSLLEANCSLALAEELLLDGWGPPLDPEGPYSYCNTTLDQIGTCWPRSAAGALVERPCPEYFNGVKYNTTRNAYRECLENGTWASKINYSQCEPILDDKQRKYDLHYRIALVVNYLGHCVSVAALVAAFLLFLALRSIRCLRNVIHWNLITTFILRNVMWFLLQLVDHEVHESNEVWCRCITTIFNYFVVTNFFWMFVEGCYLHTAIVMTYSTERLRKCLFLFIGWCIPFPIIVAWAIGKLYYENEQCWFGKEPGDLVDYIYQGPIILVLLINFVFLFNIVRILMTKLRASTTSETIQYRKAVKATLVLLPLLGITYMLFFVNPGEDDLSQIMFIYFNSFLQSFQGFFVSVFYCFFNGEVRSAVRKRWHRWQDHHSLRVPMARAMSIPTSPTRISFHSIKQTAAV
T3 sequence (P24387 whole entry): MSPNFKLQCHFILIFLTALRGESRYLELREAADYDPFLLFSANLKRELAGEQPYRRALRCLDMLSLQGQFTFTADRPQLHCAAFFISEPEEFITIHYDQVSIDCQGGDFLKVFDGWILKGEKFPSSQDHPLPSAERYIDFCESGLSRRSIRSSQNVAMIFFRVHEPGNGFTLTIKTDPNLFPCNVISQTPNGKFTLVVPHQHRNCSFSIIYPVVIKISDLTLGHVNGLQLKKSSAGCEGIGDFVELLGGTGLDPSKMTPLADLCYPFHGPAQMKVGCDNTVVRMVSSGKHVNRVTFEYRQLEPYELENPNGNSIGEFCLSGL

[5] = molecular target: T3, Corticotropin-releasing factor receptor 2/Corticotropin-releasing factor-binding protein; test: activators of CRF receptor 2 with binding protein – uHTS hits, confirmation (AID 602473); format: functional; conditions: read-out: EC50_Mean
[6] = HEp-2 cell cytotoxicity, dose response, cytotoxicity control for RSV inhibitor project, HTS (AID 2410); format: functional; conditions: human respiratory syncytial virus
[7] = Luminescence Cell-Based Dose Response HTS to Identify Activators of Luciferase Translation or Activity in H4 […] Cells. [Related pubchem assays: 1829 (Project Summary), 1814 (Primary HTS)]; format: functional
H4 = test: Luminescence Cell-Based Dose Response HTS to Identify Activators of 5'UTR Stem-Loop Driven Prion Protein mRNA Translation in H4 Neuroglioblastoma Cells. [Related pubchem assays: 1829 (Project Summary), 1814 (Primary HTS)]; format: functional; conditions: Homo sapiens
Cytochrome P450 3A4 = Cytochrome P450 3A4 (Homo sapiens, UniProt P08684);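 further: CYP3A4 tested as one member of a cytochrome P450 panel screen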
Chain of Cytochrome P450 3A4 (P08684 whole entry): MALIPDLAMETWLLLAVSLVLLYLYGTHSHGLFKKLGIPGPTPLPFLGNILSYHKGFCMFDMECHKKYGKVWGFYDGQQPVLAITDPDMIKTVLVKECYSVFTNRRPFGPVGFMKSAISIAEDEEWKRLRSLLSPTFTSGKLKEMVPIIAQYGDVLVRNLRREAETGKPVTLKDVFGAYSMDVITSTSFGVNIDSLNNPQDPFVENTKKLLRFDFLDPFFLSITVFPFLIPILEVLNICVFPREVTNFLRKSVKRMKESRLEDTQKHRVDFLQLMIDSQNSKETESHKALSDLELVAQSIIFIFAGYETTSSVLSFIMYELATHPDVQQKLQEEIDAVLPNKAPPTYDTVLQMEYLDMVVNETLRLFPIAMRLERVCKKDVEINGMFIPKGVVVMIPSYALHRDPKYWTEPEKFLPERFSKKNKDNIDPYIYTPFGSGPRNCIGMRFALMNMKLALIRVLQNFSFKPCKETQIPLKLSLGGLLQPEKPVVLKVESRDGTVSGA

## COc1ccc2oc(=O)c(C(=O)Oc3ccc(NC(C)=O)cc3)cc2c1
[1]
  IC50: 24.5 µM (active)
Cytochrome P450 2C9
  AC50: 39.8 µM (inconclusive)

## O=C(O)CCn1cc(C=C2C(=O)NC(=O)NC2=O)c(-c2cc3ccccc3oc2=O)n1
[2]
  AC50: 0.109 µM (active)

## CC(C)S(=O)(=O)c1csc(NC(=O)Nc2cc(Cl)ccc2Cl)c1Cl
[3]
  EC50: 1.3 µM (active)
Streptokinase A
  EC50: 7.69 µM (active)
Streptococcus
  EC50: 8.4 µM (active)

## Fc1ccc(-n2nnnc2S)cc1N1CCCC1
[2]
  AC50: 5.21 µM (active)

## Cc1c(Cl)c([N+](=O)[O-])nn1CCCC(=O)Nc1cc(Oc2ccccc2)cc([N+](=O)[O-])c1
[4]
  IC50: > 47.1 µM (inactive)
[5]
  EC50: > 53 µM (inactive)

## COc1ccccc1CNCC(=O)NCc1ccc(C)cc1
[1]
  IC50: 163 µM (active)

## COc1ccc(CNc2ncc(-c3cccc([N+](=O)[O-])c3)n2C)c(OC)c1OC
[2]
  AC50: 0.035 µM (active)

## Cc1ccc(Cl)cc1N(CC(=O)N1CCOCC1)S(C)(=O)=O
[4]
  IC50: > 47.1 µM (inactive)
[5]
  EC50: > 53 µM (inactive)

## Cc1ccc(-c2csc(NCCc3nc4cc(Cl)c(Cl)cc4n3CCOCCO)n2)cc1
[6]
  CC50: 9.53 µM (active)

## COc1cc(N2CCCC2)c(OC)cc1/C=C(/C#N)c1cccc(Br)c1
[6]
  CC50: > 50 µM (active)

## CC(C)n1cnc2c(NCc3ccccc3)nc(NCc3ccccc3)nc21
[3]
  EC50: 5.26 µM (active)
Streptokinase A
  EC50: > 150 µM (not active)
Streptococcus
  EC50: > 150 µM (not active)

## CC(C)CN(CC(C)C)C(=O)CCCC(=O)N(CC(C)C)CC(C)C
[4]
  IC50: > 47.1 µM (inactive)
[5]
  EC50: > 53 µM (inactive)

## CCOC(=O)c1cc2c(=O)c3cc(C)ccc3oc2nc1C
[4]
  IC50: > 47.1 µM (inactive)
[5]
  EC50: > 53 µM (inactive)

## O=C(Nc1ccc2nn(-c3ccc(F)cc3)nc2c1)c1cccnc1
[6]
  CC50: > 50 µM (active)

## COc1cc(C(=O)NNC(=S)NC(=O)c2ccccc2C)cc(OC)c1OC
[3]
  EC50: 2.06 µM (active)
Streptokinase A
  EC50: > 150 µM (not active)
Streptococcus
  EC50: 49.5 µM (active)

## Nc1cccc(Nc2ccccc2)c1
[2]
  AC50: 2.5 µM (active)

## Cc1nn(C)cc1CN(C)C(=O)c1ccc(OC2CCN(Cc3ccccn3)CC2)cc1
[4]
  IC50: > 47.1 µM (inactive)
[5]
  EC50: > 53 µM (inactive)

## COc1ccc(N2CCC(CN=C(S)Nc3cc(C)cc(C)c3)C2)cc1 (configuration not stated)
[1]
  IC50: 108 µM (active)

## CC(=O)Nc1sc(NC(=O)c2ccc([N+](=O)[O-])cc2)nc1-c1cccs1
[3]
  EC50: > 150 µM (not active)
Streptokinase A
  EC50: > 150 µM (not active)
Streptococcus
  EC50: > 150 µM (not active)

## CCN(Cc1ccncc1)Cc1ccc(OC)cc1OC
[1]
  IC50: 117 µM (active)

## FC(F)(F)c1cc(CCN2C(=S)NC[C@@H]2CC2CCCCC2)cc(C(F)(F)F)c1
Streptokinase A
  EC50: 7 µM (active)

## O=C(NN=C(S)Nc1ccc(Cl)c(Cl)c1)c1cccc([N+](=O)[O-])c1
[6]
  CC50: 7.46 µM (active)

## O=C(O)c1ccc(NC(=O)c2cn(-c3ccccc3)nc2-c2cccc(Cl)c2)cc1
[6]
  CC50: 33.6 µM (active)

## COc1cccc(-n2cnc3cccc(N)c32)c1
[2]
  AC50: 24.2 µM (active)

## Cc1[nH]c2ccccc2c1CCNS(=O)(=O)c1ccc(S(N)(=O)=O)cc1
[2]
  AC50: 2.77 µM (active)

## O=C(c1cnn2c(C(F)(F)F)cc(-c3ccc(F)cc3)nc12)N1CCc2ccccc2C1
[3]
  EC50: 14 µM (active)
Streptokinase A
  EC50: 37 µM (active)
Streptococcus
  EC50: > 150 µM (not active)

## Cc1ccc(Nc2nnc(SCC(=O)c3ccc(Br)s3)s2)c(C)c1
[6]
  CC50: 24.4 µM (active)

## CN1CCN(C(=S)c2ccc(-c3cccc(Cl)c3Cl)o2)CC1
[6]
  CC50: 20.7 µM (active)

## Cc1ccnc(NC(=O)c2cccc(S(=O)(=O)N3CCCC3)c2)c1
[4]
  IC50: > 47.1 µM (inactive)
[5]
  EC50: > 53 µM (inactive)

## CC(C)C(=O)Nc1ccc(C(=O)NNC(=S)NC(=O)c2cccs2)cc1
[3]
  EC50: 6.98 µM (active)
Streptokinase A
  EC50: > 150 µM (not active)
Streptococcus
  EC50: 34.8 µM (active)

## Cc1ccc(OCCN2CCN(C)CC2)c([N+](=O)[O-])c1
[1]
  IC50: 75.4 µM (active)

## COc1ccc(C(=O)n2c(N)nc3ccccc32)cc1OC
[7]
  EC50: 0.429 µM (active)

## O=C(Cc1ccc(Cl)cc1)N1CCN(c2ccccc2)CC1
[2]
  AC50: 17.8 µM (active)

## CC1CCCCN1S(=O)(=O)c1ccc(NC(=O)c2cccs2)cc1 (configuration not stated)
[6]
  CC50: 25.1 µM (active)

## COc1ccc(NC2CCCN(C(=O)c3cccc(N4CCNC4=O)c3)C2)cc1 (configuration not stated)
[1]
  IC50: 75.2 µM (active)

## COc1ccc(CCNC(=O)C(=O)NCC2OCCN2S(=O)(=O)c2ccc(OC)cc2)cc1 (configuration not stated)
[4]
  IC50: > 47.1 µM (inactive)
[5]
  EC50: > 53 µM (inactive)

## Nc1ccc2[nH]c(S)nc2c1
[1]
  IC50: 19.4 µM (active)

## Cc1ccc(C2Cc3cc(O)c(O)cc3CN2)cc1 (configuration not stated)
[2]
  AC50: 4.2 µM (active)

## Sc1nnc2n1CCCN2
[2]
  AC50: 11.1 µM (active)

## CN(C)/C=N/c1ncnc2c1cnn2-c1ccc(C(F)(F)F)cn1
[7]
  EC50: > 120 µM (not active)
H4
  EC50: > 120 µM (not active)

## CC1C(=O)N(Cc2cn(CCC3OCCCO3)nn2)CCS(=O)(=O)N1Cc1ccc(-c2ccc(Cl)cc2)cc1 (configuration not stated)
[4]
  IC50: > 47.1 µM (inactive)
[5]
  EC50: > 53 µM (inactive)

## COc1ccc(N)cc1NC(=O)CN1CCOCC1
[1]
  IC50: 118 µM (active)

## Cc1onc(-c2ccccc2)c1C(=O)N/N=C/c1cc(Br)c(Br)o1
[4]
  IC50: > 47.1 µM (inactive)
[5]
  EC50: > 53 µM (inactive)

## CN(C)C(=O)C1CC(=O)OC12CCCCC2 (configuration not stated)
[4]
  IC50: > 47.1 µM (inactive)
[5]
  EC50: > 53 µM (inactive)

## COc1ncnc2c1ncn2CCCNc1ccc(C)c(C)c1
[1]
  IC50: 102 µM (active)

## CC(=O)NCc1ccc(C(=O)O)cc1
[4]
  IC50: > 47.1 µM (inactive)
[5]
  EC50: > 53 µM (inactive)

## Cc1ccc(-n2nc3c(n2)/C(=N/O)CC/C3=N\O)cc1
[7]
  EC50: 1.05 µM (active)

## Oc1ccc(/C=N/Nc2cccc3cccnc23)c(O)c1
H4
  EC50: 18.7 µM (active)

## OCCN(/C=N/C1=NN(c2cccc(C(F)(F)F)c2)CC1)CCO
Cytochrome P450 3A4
  AC50: 14.1 µM (inconclusive)
[1]
  IC50: 30.9 µM (active)
Cytochrome P450 2C9
  AC50: 0.0224 µM (inconclusive)

## COc1cc(/C=C/c2ccc(O)cc2)cc(OC)c1 [PTEROSTILBENE]
[2]
  AC50: 0.778 µM (active)
